Experimental findings from patent publication US20240270740A1, “INHIBITORS OF CYCLIC GMP-AMP SYNTHASE AND USES THEREOF” (Ventus Therapeutics U.S., Inc., priority 2022, published 2024) are described below.

The target in test [1] is T1, hcGAS (Homo sapiens, UniProt Q8N884). Put plainly: hcGAS Kinase-Glo assay (ATP depletion). It counts as biochemical. Conditions: 40 nM hcGAS, 100 μM ATP, 100 μM GTP, 25 nM dsDNA, 3 h incubation. In a few lines:
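Human cGAS activity measured indirectly as ATP depletion by Kinase-Glo luminescence, following the Lama et al. method with modified conditions. Output is IC50, binned into potency categories.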
On the technique in general: Kinase-Glo measures the ATP left after a reaction by luminescence.

Test [2] addresses T1, hcGAS. The test can be described thus: hcGAS LCMS assay (direct measurement of cGAMP production). Type of test: biochemical. As to conditions: 0.5 nM hcGAS, 100 μM ATP, 100 μM GTP, 25 nM dsDNA, 4 h incubation. In a few lines:
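Direct LC/MS readout of cGAMP formed: 4-h enzyme–substrate incubation with compound, stopped by acetonitrile/water quench carrying isotope-labelled cGAMP (0.15 mM) as standard. Potency reported as IC50 ranges.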

T1 sequence (Q8N884 whole entry): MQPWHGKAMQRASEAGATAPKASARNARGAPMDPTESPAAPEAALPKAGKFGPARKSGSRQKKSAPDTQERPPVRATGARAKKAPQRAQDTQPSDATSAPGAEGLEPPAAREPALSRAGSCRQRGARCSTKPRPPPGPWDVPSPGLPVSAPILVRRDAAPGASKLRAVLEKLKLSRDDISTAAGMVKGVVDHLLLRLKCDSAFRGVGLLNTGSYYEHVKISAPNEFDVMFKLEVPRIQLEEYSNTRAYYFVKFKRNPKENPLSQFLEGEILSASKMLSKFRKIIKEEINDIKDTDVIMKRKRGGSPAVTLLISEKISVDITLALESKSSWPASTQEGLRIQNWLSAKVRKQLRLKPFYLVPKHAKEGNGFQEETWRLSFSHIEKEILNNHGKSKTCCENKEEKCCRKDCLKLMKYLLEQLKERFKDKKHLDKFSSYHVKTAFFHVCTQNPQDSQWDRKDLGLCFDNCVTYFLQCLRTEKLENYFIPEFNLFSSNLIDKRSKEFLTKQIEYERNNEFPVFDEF

For the molecule `COc1c(NC23CC(C2)C3)cc(C(=O)Nc2nnc(-n3nccc3C)s2)oc1=O` [Compound 182, 4-(bicyclo[1.1.1]pentan-1-ylamino)-3-methoxy-N-(5-(5-methyl-1H-pyrazol-1-yl)-1,3,4-thiadiazol-2-yl)-2-oxo-2H-pyran-6-carboxamide], the IC50 on hcGAS [1] was 10 to 30 nM; on hcGAS [2] it was 5 to 20 nM.
As to `COc1c(N[C@@H]2CCC[C@@H]2O)cc(C(=O)Nc2nnc(-n3nccc3C)s2)oc1=O` (racemic) [Rac-23, 4-(((cis)-2-hydroxycyclopentyl)amino)-3-methoxy-N-(5-(5-methyl-1H-pyrazol-1-yl)-1,3,4-thiadiazol-2-yl)-2-oxo-2H-pyran-6-carboxamide], the IC50 at hcGAS [1] was 10 to 30 nM; against hcGAS [2], less than 5 nM.
Regarding `COc1c(NC23CC(C2)C3)cc(C(=O)Nc2nnc(-c3c(Cl)ccn3C)s2)oc1=O` [Compound 41, 4-{bicyclo[1.1.1]pentan-1-ylamino}-N-[5-(3-chloro-1-methylpyrrol-2-yl)-1,3,4-thiadiazol-2-yl]-5-methoxy-6-oxopyran-2-carboxamide], the IC50 against hcGAS [1] was less than 10 nM; against hcGAS [2] it was less than 5 nM.
The corresponding values for `COc1c(N[C@H]2CC[C@@H](O)C2)cc(C(=O)Nc2nnc(-n3nccc3C)s2)oc1=O` (racemic) [Rac-61, 4-(((1S,3R)-3-hydroxycyclopentyl)amino)-3-methoxy-N-(5-(5-methyl-1H-pyrazol-1-yl)-1,3,4-thiadiazol-2-yl)-2-oxo-2H-pyran-6-carboxamide] are 10 to 30 nM and 5 to 20 nM.
The corresponding values for `COc1c(NCC(C)(C)OC)cc(C(=O)Nc2nnc(-n3nccc3C)s2)oc1=O` [Compound 120, 3-methoxy-4-((2-methoxy-2-methylpropyl)amino)-N-(5-(5-methyl-1H-pyrazol-1-yl)-1,3,4-thiadiazol-2-yl)-2-oxo-2H-pyran-6-carboxamide] are 10 to 30 nM and 5 to 20 nM.
Take `COCC(C)(C)Nc1cc(C(=O)Nc2nnc(-n3nccc3C)s2)oc(=O)c1OC` [Compound 76, 3-methoxy-4-((1-methoxy-2-methylpropan-2-yl)amino)-N-(5-(5-methyl-1H-pyrazol-1-yl)-1,3,4-thiadiazol-2-yl)-2-oxo-2H-pyran-6-carboxamide]: the figures for the 50% inhibitory concentration (IC50) at hcGAS [1] and against hcGAS [2] were 10 to 30 nM and 5 to 20 nM, respectively.
In the case of `COc1c(N2CC[C@@H](S(C)(=O)=O)C2)cc(C(=O)Nc2nnc(-n3nccc3C)s2)oc1=O` [Compound 8, (R)-3-methoxy-N-(5-(5-methyl-1H-pyrazol-1-yl)-1,3,4-thiadiazol-2-yl)-4-(3-(methylsulfonyl)pyrrolidin-1-yl)-2-oxo-2H-pyran-6-carboxamide], the IC50 against hcGAS [1] lay within 10 to 30 nM; at hcGAS [2], 5 to 20 nM.
For `COc1c(N[C@H]2CCC[C@@H]2OC)cc(C(=O)Nc2nnc(-n3nccc3C)s2)oc1=O` (racemic) [Rac-107, 3-methoxy-4-(((1S,2S)-2-methoxycyclopentyl)amino)-N-(5-(5-methyl-1H-pyrazol-1-yl)-1,3,4-thiadiazol-2-yl)-2-oxo-2H-pyran-6-carboxamide], the values for the IC50 at hcGAS [1] and against hcGAS [2] were less than 10 nM and 5 to 20 nM, respectively.
For `COc1c(NC(C)C)cc(C(=O)Nc2nnc(-n3nccc3C)s2)oc1=O` [Compound 179, 4-(isopropylamino)-5-methoxy-N-[5-(5-methylpyrazol-1-yl)-1,3,4-thiadiazol-2-yl]-6-oxopyran-2-carboxamide], the half-inhibitory concentration (IC50) against hcGAS [1] was 30 to 100 nM; against hcGAS [2], 5 to 20 nM.
For `COc1c(N2CC[C@H](O)C2)cc(C(=O)Nc2nnc(-n3nccc3C)s2)oc1=O` [Compound 110, (S)-4-(3-hydroxypyrrolidin-1-yl)-3-methoxy-N-(5-(5-methyl-1H-pyrazol-1-yl)-1,3,4-thiadiazol-2-yl)-2-oxo-2H-pyran-6-carboxamide] the same measures were 10 to 30 nM and 5 to 20 nM.
Turning to `COc1c(N[C@H]2CC[C@H](O)C2)cc(C(=O)Nc2nnc(-n3nccc3C)s2)oc1=O` (racemic) [Rac-6, 4-(((1S,3S)-3-hydroxycyclopentyl)amino)-3-methoxy-N-(5-(5-methyl-1H-pyrazol-1-yl)-1,3,4-thiadiazol-2-yl)-2-oxo-2H-pyran-6-carboxamide], the IC50 against hcGAS [1] lay within 10 to 30 nM; against hcGAS [2], 5 to 20 nM.
For `COCCNc1cc(C(=O)Nc2nnc(-c3sccc3Cl)s2)oc(=O)c1OC` [Compound 146, N-[5-(3-chlorothiophen-2-yl)-1,3,4-thiadiazol-2-yl]-5-methoxy-4-[(2-methoxyethyl)amino]-6-oxopyran-2-carboxamide], the IC50 at hcGAS [1] was 10 to 30 nM; against hcGAS [2] it was 5 to 20 nM.
As to `COc1c(N2CC[C@H](S(C)(=O)=O)C2)cc(C(=O)Nc2nnc(-n3nccc3C)s2)oc1=O` [Compound 60, (S)-3-methoxy-N-(5-(5-methyl-1H-pyrazol-1-yl)-1,3,4-thiadiazol-2-yl)-4-(3-(methylsulfonyl)pyrrolidin-1-yl)-2-oxo-2H-pyran-6-carboxamide], the IC50 is 10 to 30 nM on hcGAS [1] and 5 to 20 nM on hcGAS [2].
For the molecule `COc1c(NC23CC(C(C)(C)O)(C2)C3)cc(C(=O)Nc2nnc(-n3nccc3C)s2)oc1=O` [Compound 117, 4-((3-(2-hydroxypropan-2-yl)bicyclo[1.1.1]pentan-1-yl)amino)-3-methoxy-N-(5-(5-methyl-1H-pyrazol-1-yl)-1,3,4-thiadiazol-2-yl)-2-oxo-2H-pyran-6-carboxamide], the IC50 at hcGAS [1] fell in the range of 10 to 30 nM; against hcGAS [2], 5 to 20 nM.
With `COC[C@@H]1CCN(c2cc(C(=O)Nc3nnc(-n4nccc4C)s3)oc(=O)c2OC)C1` [Compound 1, (R)-3-methoxy-4-(3-(methoxymethyl)pyrrolidin-1-yl)-N-(5-(5-methyl-1H-pyrazol-1-yl)-1,3,4-thiadiazol-2-yl)-2-oxo-2H-pyran-6-carboxamide], the values for the IC50 against hcGAS [1] and against hcGAS [2] were 10 to 30 nM and 5 to 20 nM, respectively.
For `COc1c(NC(C)C)cc(C(=O)Nc2nnc(-c3c(Cl)ccn3C)s2)oc1=O` [Compound 131, N-(5-(3-chloro-1-methyl-1H-pyrrol-2-yl)-1,3,4-thiadiazol-2-yl)-4-(isopropylamino)-3-methoxy-2-oxo-2H-pyran-6-carboxamide] the same measures were 10 to 30 nM and 5 to 20 nM.
For `COc1c(N[C@H]2CC[C@H](OC)CC2)cc(C(=O)Nc2nnc(-n3nccc3C)s2)oc1=O` [Compound 11, 3-methoxy-4-(((1,4-trans)-4-methoxycyclohexyl)amino)-N-(5-(5-methyl-1H-pyrazol-1-yl)-1,3,4-thiadiazol-2-yl)-2-oxo-2H-pyran-6-carboxamide] the same measures were 10 to 30 nM and 20 to 60 nM.
With `COC[C@H]1CCCN1c1cc(C(=O)Nc2nnc(-n3nccc3C)s2)oc(=O)c1OC` [Compound 38, (R)-3-methoxy-4-(2-(methoxymethyl)pyrrolidin-1-yl)-N-(5-(5-methyl-1H-pyrazol-1-yl)-1,3,4-thiadiazol-2-yl)-2-oxo-2H-pyran-6-carboxamide], the IC50 against hcGAS [1] lay within 10 to 30 nM; on hcGAS [2], 5 to 20 nM.
As to `COc1c(N[C@@H]2CCOC2)cc(C(=O)Nc2nnc(-n3nccc3C)s2)oc1=O` [Compound 184, (R)-3-methoxy-N-(5-(5-methyl-1H-pyrazol-1-yl)-1,3,4-thiadiazol-2-yl)-2-oxo-4-((tetrahydrofuran-3-yl)amino)-2H-pyran-6-carboxamide], the IC50 at hcGAS [1] lay in the range of 30 to 100 nM; against hcGAS [2], 20 to 60 nM.
Turning to `COc1c(NCCC#N)cc(C(=O)Nc2nnc(-n3nccc3C)s2)oc1=O` [Compound 176, 4-((2-cyanoethyl)amino)-3-methoxy-N-(5-(5-methyl-1H-pyrazol-1-yl)-1,3,4-thiadiazol-2-yl)-2-oxo-2H-pyran-6-carboxamide], the IC50 at hcGAS [1] was in the range of 10 to 30 nM; on hcGAS [2], 5 to 20 nM.
The corresponding values for `COc1c(NCCS(C)(=O)=O)cc(C(=O)Nc2nnc(-n3nccc3C)s2)oc1=O` [Compound 183] are 30 to 100 nM and 5 to 20 nM.
Consider `COc1c(N2C[C@H](OC)[C@H](OC)C2)cc(C(=O)Nc2nnc(-n3nccc3C)s2)oc1=O` [Compound 59, 4-((3S,4R)-3,4-dimethoxypyrrolidin-1-yl)-3-methoxy-N-R(5-(5-methyl-1H-pyrazol-1-yl)-1,3,4-thiadiazol-2-yl)-2-oxo-2H-pyran-6-carboxamide], for which the IC50 is 10 to 30 nM against hcGAS [1] and 5 to 20 nM at hcGAS [2].
Regarding `COCCNc1cc(C(=O)Nc2nnc(-c3c(Cl)ccn3C)s2)oc(=O)c1OC` [Compound 127, N-(5-(3-chloro-1-methyl-1H-pyrrol-2-yl)-1,3,4-thiadiazol-2-yl)-3-methoxy-4-((2-methoxyethyl)amino)-2-oxo-2H-pyran-6-carboxamide], the 50% inhibitory concentration (IC50) is 10 to 30 nM on hcGAS [1] and less than 5 nM against hcGAS [2].
With `COc1c(N2CC[C@@H](OC)C2)cc(C(=O)Nc2nnc(-n3nccc3C)s2)oc1=O` [Compound 31, (R)-5-methoxy-4-(3-methoxypyrrolidin-1-yl)-N-(5-(5-methyl-1H-pyrazol-1-yl)-1,3,4-thiadiazol-2-yl)-6-oxo-6H-pyran-2-carboxamide], the results for the IC50 at hcGAS [1] and against hcGAS [2] were 10 to 30 nM and 5 to 20 nM, respectively.
With `COc1c(N[C@@H]2CCC[C@@H]2O)cc(C(=O)Nc2nnc(-c3sccc3Cl)s2)oc1=O` (racemic) [Rac-7, N-(5-(3-chlorothiophen-2-yl)-1,3,4-thiadiazol-2-yl)-4-(((cis)-2-hydroxycyclopentyl)amino)-3-methoxy-2-oxo-2H-pyran-6-carboxamide], the IC50 was less than 10 nM at hcGAS [1] and less than 5 nM on hcGAS [2].
On to `COC[C@@H](C)Nc1cc(C(=O)Nc2nnc(-n3nccc3C)s2)oc(=O)c1OC` [Compound 121, (R)-3-methoxy-4-((1-methoxypropan-2-yl)amino)-N-(5-(5-methyl-1H-pyrazol-1-yl)-1,3,4-thiadiazol-2-yl)-2-oxo-2H-pyran-6-carboxamide], for which the IC50 on hcGAS [1] was 10 to 30 nM; at hcGAS [2], 5 to 20 nM.

The term IC50 denotes the concentration that inhibits the measured activity by half.
